Source: US20040166509A1, “Detecting hormonally active compounds” (priority 2002, published 2004)

Tested on: liver cDNAs of adult male LMB
Test: LMB gene arrays of SSH-derived cDNAs: liver of fish treated with androgens
Type: in vivo, largemouth bass (LMB)
Conditions: DHT 62.5 μg/g, 11-KT 20 μg/g vs DMSO
Method: For each cDNA clone, the general background of each membrane was subtracted from the average value of the duplicate spots on the membrane. The values were then normalized to the average value of seven cDNA clones specific to ribosomal genes and the fold change calculated by dividing the mean of each treatment by the mean of the control. Those genes which changed by 2-fold or more were graphed. Significant differences (p<0.05) were determined by ANOVA and secondary testing was done by using […].

C[C@]12CCC(=O)C[C@@H]1CC[C@@H]1[C@@H]2CC[C@]2(C)[C@@H](O)CC[C@@H]12 [DHT, dihydrotestosterone]
24-1 (LOC L1) change: down
53-1 (LOC B2) change: down
68-1 (LOC C2) change: down
97-8 (LOC F2) change: up (Those genes which changed by 2-fold or more were graphed)
ALDOLASE B (LOC K2) change: down
ALPHA 1 ANTI-TRYPSIN (LOC L2) change: down
ALPHA TUBULIN (LOC M2) change: down
APOL[…] (LOC C3) change: down
ATP SYNTHASE (LOC K7) change: up (Those genes which changed by 2-fold or more were graphed)
ATPASE 6 (LOC E3) change: up (Those genes which changed by 2-fold or more were graphed)
ATPASE SUBUNIT 6 (LOC F9) change: up (Those genes which changed by 2-fold or more were graphed)
COMPLEMENT C3 (LOC L3) change: down
CYSTATIN (LOC O3) change: down
ER GAMMA 5′ 2F (LOC L14) change: down
EST DHT64 (LOC D4) change: up (Those genes which changed by 2-fold or more were graphed)
EST P4_06 (LOC L8) change: up (Those genes which changed by 2-fold or more were graphed)
EST P4_D08 (LOC N8) change: up (Those genes which changed by 2-fold or more were graphed)
EST SEASONAL 9 (LOC D13) change: up (Those genes which changed by 2-fold or more were graphed)
EST SEASONAL 11 (LOC O6) change: down
EST SEASONAL 12 (LOC B8) change: up (Those genes which changed by 2-fold or more were graphed)
EST SEASONAL 42 (LOC H10) change: down
EST SEASONAL 51 (LOC K11) change: down
EST SEASONAL 55 (LOC M4) change: down
EST SEASONAL 56 (LOC F12) change: up (Those genes which changed by 2-fold or more were graphed)
EST SEASONAL 62 (LOC B14) change: up (Those genes which changed by 2-fold or more were graphed)
EST SEASONAL 64 (LOC H7) change: up (Those genes which changed by 2-fold or more were graphed)
EST SEASONAL 72 (LOC K12) change: down
EST SEASONAL 88 (LOC E12) change: up (Those genes which changed by 2-fold or more were graphed)
EST SEASONAL 90 (LOC L9) change: down
EST SEASONAL F17 (LOC B9) change: down
EST SEASONAL F21 (LOC O13) change: down
ESTDHT60 (LOC F5) change: down
ESTP4_C04 (LOC G9) change: down
ESTP4_E01 (LOC K5) change: down
ESTP4_E06 (LOC D6) change: down
ESTP4_H07 (LOC K13) change: up (Those genes which changed by 2-fold or more were graphed)
GP3 11C (LOC K1) change: down
G[…] (LOC G5) change: down-regulated and down
HAPTOGLOBIN (LOC I5) change: down
HEPCIDIN (LOC J5) change: down
IGF-I (LOC M5) change: down
LDL RC (LOC J10) change: down
LMB24-1 (Unknown) differentially expressed by androgens: dn-reg DHT;
LMB53-1 (unknown) differentially expressed by androgens: Down-reg. E2;
LMB68-1 (hypothetical protein) differentially expressed by: Dn-reg DHT
LMB97 choriogenin-3 differentially expressed by androgens: Up-reg E2;
LMB112-1 cathepsin (Aspartic protease) differentially expressed by androgens: up-reg E; NP:
LMB151 vitellogenin receptor differentially expressed by: Dn-reg
LMB CIS-RETIN DEHYDRO (cis-retinol dehydrogenase) differentially expressed by: up-reg DHT
LMB EST--SEASONAL_64 differentially expressed by: up-reg DHT;
LMB EST--SEASONAL_72 differentially expressed by: Dn-reg DHT;
LMB EST--SEASONAL_88 differentially expressed by: up-reg DHT;
LMB EST--SEASONAL_90 differentially expressed by: dn-reg DHT
LMB EST--SEASONAL_F21 differentially expressed by: Dn-reg DHT
LMB EST-SEASONAL_55 differentially expressed by: Dn-reg 11-KT;
LMB EST-SEASONAL_56 differentially expressed by: up-reg DHT;
LMB GLUT-PEROX III (Glutathione peroxidase III) differentially expressed by: Dn-reg DHT
LMB LIV-REGER-PROT differentially expressed by: down by DHT
LMB RIKEN 1110001M01 differentially expressed by: up by 11KT;
LMB_ALPHA-TUBULIN (alpha tubulin) differentially expressed by: Dn-reg 11-kt;
LMB_ATPASE 6 (ATPase subunit 6) differentially expressed by: up-reg DHT
LMB_COMPLEMENT-C3 (Complement C3 precursor) differentially expressed by: Dn-reg DHT;
LMB_EST-SEASONAL_09 differentially expressed by: up-reg DHT;
LMB_EST-SEASONAL_12 differentially expressed by: up-reg DHT
LMB_EST-SEASONAL_51 differentially expressed by: dn 11-KT;
LMB_ESTDHT_62 differentially expressed by: up-reg DHT;
LMB_ESTP4-E01 differentially expressed by: down by DHT
LMB_HAPTOGLOBIN (Haptoglobin) differentially expressed by: Dn-reg DHT
LMB_HEPCIDIN (Hepcidin precursor) differentially expressed by: dn-reg DHT
LMB_LDL RC (LDL receptor) differentially expressed by: Dn-reg DHT;
LMB_LECTIN STL2 (Rhamnose binding lectin STL2) differentially expressed by: up-reg DHT
LMB_MITOCHON-ATP-SYNTHASE (ATP synthase alpha chain mitochondrial precursor) differentially expressed by: up-reg DHT
LMB_RXR INTERACT PROT (Retinoid X receptor interacting protein) differentially expressed by: Dn-reg 11-KT;
LMB_SOL-CAR-25A#5 (solute carrier family 25 alpha member 5) differentially expressed by: up-reg DHT;
LMB_SSAT (SSAT) differentially expressed by: up-reg DHT;
LMB_ZPC1 (ZPC1) differentially expressed by: up-reg DHT;
LMB_ZPC4 (ZPC4) differentially expressed by: up-reg DHT;
PTTP (LOC O10) change: up (Those genes which changed by 2-fold or more were graphed)
RETINOL DEHYDROGENASE (LOC M11) change: up (Those genes which changed by 2-fold or more were graphed)
RHAMNOSE BINDING LECTIN (LOC G13) change: up (Those genes which changed by 2-fold or more were graphed)
RIKEN 1110001M01 (LOC O11) change: up (Those genes which changed by 2-fold or more were graphed)
RIKEN 2700038C09 (LOC D12) change: down
RXR I[…] (LOC L11) change: down
SOLUTE CARRIER (LOC B13) change: up (Those genes which changed by 2-fold or more were graphed)
SSAT (LOC C13) change: up (Those genes which changed by 2-fold or more were graphed)
TFIID (change to liver regeration related protein) (LOC M12) change: down
TFIIIA (LOC J13) change: up (Those genes which changed by 2-fold or more were graphed)
UNNAMED PROTEIN (LOC C14) change: up (Those genes which changed by 2-fold or more were graphed)
VTG PRECURSOR (LOC D14) change: up (Those genes which changed by 2-fold or more were graphed)
VTG RC (LOC M14) change: down
ZPC1 (LOC H14) change: up (Those genes which changed by 2-fold or more were graphed)
ZPC4 (LOC I14) change: up (Those genes which changed by 2-fold or more were graphed)
warm water acclim (LOC E14) change: up (Those genes which changed by 2-fold or more were graphed)
